# Results: US20240382482A1, “PLASMA KALLIKREIN INHIBITORS” (TAKEDA PHARMACEUTICAL COMPANY LIMITED, priority 2021, published 2024)
# Where a name gives a salt, the structure may show the parent alone.
# Target: human activated kallikrein enzyme (Homo sapiens, UniProt P03952)
# Assay: Inhibition of human activated kallikrein enzyme, fluorogenic peptide substrate assay (500 pM enzyme format)
# Format: biochemical
# Conditions: 500 pM activated kallikrein, 300 μM PFR-AMC substrate, 30 min preincubation, 10 min reaction, room temperature; read-out: Primary Dose Response Assay: Average EC50
# Protocol: Compounds were evaluated for inhibition of the human activated kallikrein enzyme in two formats of an assay employing a fluorogenic peptide substrate. In one assay format, the concentrations of reagents were as follows: 20 mM Tris pH 7.5, 1 mM EDTA, 150 mM sodium chloride, 0.1% PEG-400, 0.1% Triton X-100, 500 pM activated kallikrein enzyme, 300 μM Pro-Phe-Arg-7-amido-4-methylcoumarin (PFR-AMC) substrate. Prior to reaction initiation with substrate, enzyme and inhibitors were preincubated for 30 min at room temperature. After initiation with substrate, reactions were incubated for 10 min at room temperature and fluorescence emission at 460 nm from 380 nm excitation measured with a microplate reader. In another assay format, the concentrations of reagents were as follows: 20 mM Tris pH 7.5, 1 mM EDTA, 150 mM sodium chloride, 0.1% PEG-400, 0.1% Triton X-100, 5 pM activated kallikrein enzyme, 300 uM PFR-AMC substrate. Prior to reaction initiation with substrate, enzyme and inhibitors were preincubated for 30 min at room temperature. After initiation with substrate, reactions were incubated for 18 hr at room temperature and fluorescence emission at 460 nm from 380 nm excitation measured with a microplate reader.
# Table 1 provides the results of the assay in the format with 500 pM activated kallikrein assay. For the compounds listed in Table 1, the EC50 values are reported according to the following ranges: A≤5.0 nM; 5.0 nM<B≤50 nM; 50 nM<C≤500 nM; 500 nM<D≤9000 nM; 9000 nM<E.
# human activated kallikrein enzyme, sequence (P03952 391-638 limits assumed): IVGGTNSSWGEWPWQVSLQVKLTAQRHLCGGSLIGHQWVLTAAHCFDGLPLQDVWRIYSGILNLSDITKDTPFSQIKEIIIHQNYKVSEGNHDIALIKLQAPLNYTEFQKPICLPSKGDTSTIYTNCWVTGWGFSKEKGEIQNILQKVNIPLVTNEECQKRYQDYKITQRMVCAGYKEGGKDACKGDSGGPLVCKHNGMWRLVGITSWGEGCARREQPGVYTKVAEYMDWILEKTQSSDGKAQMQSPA
# human activated kallikrein enzyme, sequence (P03952 20-390 partner limits assumed): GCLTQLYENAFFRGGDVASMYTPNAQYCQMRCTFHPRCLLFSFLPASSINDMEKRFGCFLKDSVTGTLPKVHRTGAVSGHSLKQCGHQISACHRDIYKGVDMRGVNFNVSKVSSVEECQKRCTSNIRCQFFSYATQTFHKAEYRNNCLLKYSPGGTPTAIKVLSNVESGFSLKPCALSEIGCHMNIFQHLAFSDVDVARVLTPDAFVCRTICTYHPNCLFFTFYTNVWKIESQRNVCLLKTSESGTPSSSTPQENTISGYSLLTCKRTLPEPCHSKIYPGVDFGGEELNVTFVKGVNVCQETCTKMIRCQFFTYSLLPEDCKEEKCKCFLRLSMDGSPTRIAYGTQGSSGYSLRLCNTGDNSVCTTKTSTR
row,SMILES,EC50 [nM]
1,"O=C(/C=C/c1cccc(Cl)c1)Nc1cc(NCc2cn3cc(C4CC4)ccc3n2)ncn1 [Example 50, (E)-3-(3-chlorophenyl)-N-(6-(((6-cyclopropylimidazo[1,2-a]pyridin-2-yl)methyl)amino)pyrimidin-4-yl)acrylamide]",5 to 50
2,"COCCOc1nc(NCc2cn3cc(C4CC4)ccc3n2)cc(NC(=O)Cc2ncn3ccc(Cl)cc23)n1 [Example 100, 2-(7-chloroimidazo[1,5-a]pyridin-1-yl)-N-(6-(((6-cyclopropylimidazo[1,2-a]pyridin-2-yl)methyl)amino)-2-(2-methoxyethoxy)pyrimidin-4-yl)acetamide]",5 to 50
3,"CCOC(=O)CCc1nc(NCc2c(C)cc(C(=N)N)cc2C)cc(OCc2cn3cc(C4CC4)ccc3n2)n1 [Example 70, ethyl 3-(4-((4-carbamimidoyl-2,6-dimethylbenzyl)amino)-6-((6-cyclopropylimidazo[1,2-a]pyridin-2-yl)methoxy)pyrimidin-2-yl)propanoate formic acid salt]",≤ 5
4,"O=C(Cn1cnc2ccc(Cl)cc21)Nc1cc(NCc2cn3cc(C4CC4)ccc3n2)ccn1 [Example 28, 2-(6-chloro-1H-benzo[d]imidazol-1-yl)-N-(4-(((6-cyclopropylimidazo[1,2-a]pyridin-2-yl)methyl)amino)pyridin-2-yl)acetamide]",500 to 9000
5,"O=C(Cc1ncn2ccc(Cl)cc12)Nc1cncnc1NCc1cn2cc(C3CC3)ccc2n1 [Example 42, 2-(7-chloroimidazo[1,5-a]pyridin-1-yl)-N-(4-(((6-cyclopropylimidazo[1,2-a]pyridin-2-yl)methyl)amino)pyrimidin-5-yl)acetamide]",50 to 500
6,"O=C(Cc1cc(Cl)ccc1Br)Nc1cc(NCc2cn3cc(C4CC4)ccc3n2)ncn1 [Example 51, 2-(2-bromo-5-chlorophenyl)-N-(6-(((6-cyclopropylimidazo[1,2-a]pyridin-2-yl)methyl)amino)pyrimidin-4-yl)acetamide]",> 9000
7,"O=C(/C=C/c1cccc(Cl)c1)Nc1cc(NCc2cn3cc(C4CC4)ccc3n2)ccn1 [Example 114, (E)-3-(3-chlorophenyl)-N-(4-(((6-cyclopropylimidazo[1,2-a]pyridin-2-yl)methyl)amino)pyridin-2-yl)acrylamide]",5 to 50
8,"CCOC(=O)Cc1cc(C2CC2)cn2cc(COc3cc(NCc4c(C)cc(C(=N)N)cc4C)ncn3)nc12 [Example 94, ethyl 2-(2-((6-(4-carbamimidoyl-2,6-dimethylbenzylamino)pyrimidin-4-yloxy)methyl)-6-cyclopropylimidazo[1,2-a]pyridin-8-yl)acetate]",≤ 5
9,"COc1ccc(CNc2cc(NCc3cn4cc(C5CC5)ccc4n3)ncn2)c(OC)c1 [Example 136, N^4-((6-cyclopropylimidazo[1,2-a]pyridin-2-yl)methyl)-N^6-(2,4-dimethoxybenzyl)pyrimidine-4,6-diamine]",500 to 9000
10,"CCCCCCOC(=O)NC(=N)c1cc(C)c(CNc2cc(OCc3cn4cc(C5CC5)ccc4n3)nc(CCC(=O)OCC)n2)c(C)c1 [Example 75, ethyl 3-(4-((6-cyclopropylimidazo[1,2-a]pyridin-2-yl)methoxy)-6-((4-(N-((hexyloxy)carbonyl)carbamimidoyl)-2,6-dimethylbenzyl)amino)pyrimidin-2-yl)propanoate]",50 to 500
11,"Nc1nccc2c1CC(C(=O)Nc1cc(NCc3cn4cc(C5CC5)ccc4n3)ccn1)C2 (stereo not drawn) [Example 29, 1-amino-N-(4-(((6-cyclopropylimidazo[1,2-a]pyridin-2-yl)methyl)amino)pyridin-2-yl)-6,7-dihydro-5H-cyclopenta[c]pyridine-6-carboxamide]",500 to 9000
12,"CC(C)(C(=O)Nc1cc(NCc2cn3cc(C4CC4)ccc3n2)ncn1)c1ncn2ccc(Cl)cc12 [Example 5, 2-(7-chloroimidazo[1,5-a]pyridin-1-yl)-N-(6-(((6-cyclopropylimidazo[1,2-a]pyridin-2-yl)methyl)amino)pyrimidin-4-yl)-2-methylpropanamide]",500 to 9000
13,"Nc1nccc2c1CCC2Nc1cc(NCc2cn3cc(C4CC4)ccc3n2)ncn1 (stereo not drawn) [Example 56, N^5-(6-(((6-cyclopropylimidazo[1,2-a]pyridin-2-yl)methyl)amino)pyrimidin-4-yl)-6,7-dihydro-5H-cyclopenta[c]pyridine-1,5-diamine]",5 to 50
14,"O=C(Cn1nnc2ccc(Cl)cc21)Nc1cc(NCc2cn3cc(C4CC4)ccc3n2)ccn1 [Example 27, 2-(6-chloro-1H-benzo[d][1,2,3]triazol-1-yl)-N-(4-(((6-cyclopropylimidazo[1,2-a]pyridin-2-yl)methyl)amino)pyridin-2-yl)acetamide]",500 to 9000
15,"CCOC(=O)CCc1nc(NCc2c(C)cc(C(=N)NC(=O)OCC)cc2C)cc(OCc2cn3cc(C4CC4)ccc3n2)n1 [Example 77, ethyl 3-(4-((6-cyclopropylimidazo[1,2-a]pyridin-2-yl)methoxy)-6-((4-(N-(ethoxycarbonyl)carbamimidoyl)-2,6-dimethylbenzyl)amino)pyrimidin-2-yl)propanoate]",5 to 50
16,"O=C(CNc1cc(Cl)ccc1-n1cnnn1)Nc1cc(NCc2cn3cc(C4CC4)ccc3n2)ccn1 [Example 117, 2-((5-chloro-2-(1H-tetrazol-1-yl)phenyl)amino)-N-(4-(((6-cyclopropylimidazo[1,2-a]pyridin-2-yl)methyl)amino)pyridin-2-yl)acetamide]",5 to 50
17,"CCOC(=O)NC(=N)c1cc(C)c(CNc2cc(OCc3cn4cc(C5CC5)ccc4n3)nc(C(=O)O)n2)c(C)c1 [Example 88, 4-((6-cyclopropylimidazo[1,2-a]pyridin-2-yl)methoxy)-6-(4-(N-(ethoxycarbonyl)carbamimidoyl)-2,6-dimethylbenzylamino)pyrimidine-2-carboxylic acid]",≤ 5
18,"O=C(Nc1cc(NCc2cn3cc(C4CC4)ccc3n2)ncn1)C(=O)c1ncn2ccc(Cl)cc12 [Example 54, 2-(7-chloroimidazo[1,5-a]pyridin-1-yl)-N-(6-(((6-cyclopropylimidazo[1,2-a]pyridin-2-yl)methy)amino)pyrimidin-4-yl)-2-oxoacetamide]",≤ 5
19,"CCOC(=O)CCc1cc(C2CC2)cn2cc(COc3cc(NCc4c(C)cc(C(=N)N)cc4C)ncn3)nc12 [Example 96, ethyl 3-(2-(((6-((4-carbamimidoyl-2,6-dimethylbenzyl)amino)pyrimidin-4-yl)oxy)methyl)-6-cyclopropylimidazo[1,2-a]pyridin-8-yl)propanoate]",≤ 5
20,"O=C(Cc1ncn2ccc(Br)c(F)c12)Nc1cc(NCc2cn3cc(C4CC4)ccc3n2)ncn1 [Example 53, 2-(7-bromo-8-fluoroimidazo[1,5-a]pyridin-1-yl)-N-(6-(((6-cyclopropylimidazo[1,2-a]pyridin-2-yl)methyl)amino)pyrimidin-4-yl)acetamide]",≤ 5
21,"O=C(Cc1ncn2ccc(Cl)cc12)Nc1ccnc(NCc2cn3cc(C4CC4)ccc3n2)n1 [Example 16, 2-(7-chloroimidazo[1,5-a]pyridin-1-yl)-N-(2-(((6-cyclopropylimidazo[1,2-a]pyridin-2-yl)methyl)amino)pyrimidin-4-yl)acetamide]",≤ 5
22,"O=C(Cc1ncn2ccc(Cl)cc12)Nc1cc(NCc2cn3cc(C4CC4)cc(C4(F)COC4)c3n2)ncn1 [Example 19, 2-(7-chloroimidazo[1,5-a]pyridin-1-yl)-N-(6-(((6-cyclopropyl-8-(3-fluorooxetan-3-yl)imidazo[1,2-a]pyridin-2-yl)methyl)amino)pyrimidin-4-yl)acetamide]",≤ 5
23,"Cc1cc(C(=N)N)cc(C)c1CNc1cc(OCc2cn3cc(Cl)ccc3n2)ncn1 [Example 69, 4-(((6-((6-chloroimidazo[1,2-a]pyridin-2-yl)methoxy)pyrimidin-4-yl)amino)methyl)-3,5-dimethylbenzimidamide formic acid salt]",≤ 5
24,"COc1ccc(-n2cnnn2)c(CNc2cc(C(F)(F)c3cn4cc(C5CC5)ccc4n3)ncn2)c1F [Example 62, 6-((6-cyclopropylimidazo[1,2-a]pyridin-2-yl)difluoromethyl)-N-(2-fluoro-3-methoxy-6-(1H-tetrazol-1-yl)benzyl)pyrimidin-4-amine]",500 to 9000
25,"O=C(Cc1ncn2ccc(Cl)cc12)Nc1cc(NCc2cn3cc(C4CC4)cc(CN4CCOCC4)c3n2)ncn1 [Example 48, 2-(7-chloroimidazo[1,5-a]pyridin-1-yl)-N-(6-(((6-cyclopropyl-8-(morpholinomethyl)imidazo[1,2-a]pyridin-2-yl)methyl)amino)pyrimidin-4-yl)acetamide]",≤ 5
26,"O=C(Cc1ncn2ccc(Cl)cc12)Nc1cc(NCc2cn3cc(C4CC4)ccc3n2)ccn1 [Example 25, 2-(7-chloroimidazo[1,5-a]pyridin-1-yl)-N-(4-(((6-cyclopropylimidazo[1,2-a]pyridin-2-yl)methyl)amino)pyridin-2-yl)acetamide]",≤ 5
27,"O=C(Cc1cc(Cl)ccc1-n1cnnn1)Nc1cc(NCc2cn3cc(C4CC4)ccc3n2)ncn1 [Example 35, 2-(5-chloro-2-(1H-tetrazol-1-yl)phenyl)-N-(6-(((6-cyclopropylimidazo[1,2-a]pyridin-2-yl)methyl)amino)pyrimidin-4-yl)acetamide]",5 to 50
